Test [1] relates to RASMCs. The test is described as follows: RASMC proliferation (fluorometric DNA assay of cell layers). The test is classed as cell-based, rat. On the procedure:
At 1 and 21 days of culture, the DNA content of the cell layers was measured to determine the proliferation of SMCs and to normalize the measured amounts of synthesized matrix (elastin, collagen). The fluorometric DNA assay, described previously by Labarca and Paigen (Labarca C, Paigen K. A simple, rapid, and sensitive DNA assay procedure. Anal Biochem. 1980; 102:344-52), was performed on cell layers processed as described previously (Joddar B, Ramamurthi A. Fragment size- and dose-specific effects of hyaluronan on matrix synthesis by vascular smooth muscle cells. Biomaterials. 2006; 27(15): 2994-3004). Actual cell counts were then calculated on the basis of an estimated 6 pg DNA/cell.

Test [2] deals with RASMCs. The test is described as follows: Collagen synthesis by RASMCs (hydroxy-proline assay). In kind it is cell-based, rat.
In test [3] the target is T1, lysyl oxidase (LOX) (Rattus norvegicus, UniProt P16636).
T1 construct: spent culture medium pooled at day 21 of a culture was assayed; endogenous in cells; host or cells: adult rat aortic smooth muscle cells (RASMCs; Cell Applications), spent culture medium
T1 sequence (P16636 163-411): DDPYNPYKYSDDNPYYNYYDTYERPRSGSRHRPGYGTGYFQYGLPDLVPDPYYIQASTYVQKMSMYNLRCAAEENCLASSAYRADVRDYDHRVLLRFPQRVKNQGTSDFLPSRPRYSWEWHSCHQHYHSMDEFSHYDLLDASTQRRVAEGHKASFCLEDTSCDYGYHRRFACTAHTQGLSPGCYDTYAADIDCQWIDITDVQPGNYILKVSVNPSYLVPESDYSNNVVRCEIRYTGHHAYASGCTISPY
Description: LOX functional activity (fluorometric Amplex red assay of spent medium). In kind it is cell-based. As to conditions: 21 days. On the procedure:
To determine LOX functional activity, spent culture medium pooled at day 21 of a culture was assayed using a fluorometric assay based on generation of H2O2 when LOX acts on a synthetic substrate. H2O2 was detected using an Amplex® red kit (Molecular Probes, OR,). The fluorescence intensities were recorded with excitation and emission wavelengths at 560 nm and 590 nm, respectively

Test [4] relates to RASMCs. The test is described as follows: Tropoelastin synthesis by RASMCs (Fastin assay of pooled spent medium). The test is classed as cell-based, rat. The note with it: Example 1, 21-day culture, n=3.
Test [5] deals with RASMCs. Description: SDS-PAGE/Western blot of soluble tropoelastin in spent medium. The note with it: Example 1, n=3/case. In kind it is cell-based, rat. The protocol:
SDS-PAGE and Western Blot were performed to confirm the observed biochemical trends for synthesis of soluble tropoelastin. Briefly, the aliquots of spent medium removed and pooled at bi-weekly intervals over the 21-day culture period, were lyophilized, assayed for protein content using a DC protein assay kit (Biorad Corporation, Hercules, Calif.), and subjected to SDS-PAGE and Western Blot. Optimized sample amounts (20 μg) were appropriately mixed and boiled (100° C., 5 min) with a loading buffer (2% w/v Sodium Dodecyl Sulfate (SDS), 62 mM Trizma base, 10% v/v Glycerol, 600 mM dithiothreitol), flash-spun in an ultracentrifuge (500 g, 2 min) and loaded under reduced conditions onto 10% w/v polyacrylamide gels (Novex Tris-Glycine gels, Invitrogen Corporation, Carlsbad, Calif.), with prestained protein standards ranging between 10-190 kDa (Benchmark Pre-stained Protein Ladder, Invitrogen) and western blot standards ranging between 20-220 kDa (MagicMark XP Western Protein Standards, Invitrogen). […] Following electrophoresis, the protein bands were transferred onto a PVDF pre-wetted membrane, developed, imaged using trans-white light, and quantified using the Alpha Innotech imaging software (Alpha Ease FC; Chemi-imager 4400) as described previously. […]
(In general: Immunoblotting shows a protein as a band on a membrane.)

Test [6] has as its system RASMCs. Description: Desmosine content of cell-matrix layers (ELISA). The test is classed as cell-based, rat. The note with it: Example 1. On the procedure:
Desmosine content of the cell-matrix layers was determined in expectation that it would correlate with the amounts of crosslinked elastin and serve as an indirect confirmation of the earlier observed biochemical trends, with regard to synthesis of matrix elastin. To assess desmosine content, compounded test and control cell pellets were digested with collagenase type VII (Sigma; 12 h, 37° C.) and re-centrifuged (3000 g, 10 min, 4° C.) to obtain a supernatant (SI) and a pellet. This pellet was digested with pancreatic porcine elastase type III (Sigma; 12 h, 37° C.) to obtain a soluble peptide fraction (SII). Fractions SI and SII were pooled together, acid-hydrolyzed with 6 N HCl (110° C., 16 h), dried under a stream of inert N2, re-constituted in water and the desmosine content determined by ELISA as previously done.
For orientation: ELISA stands for enzyme-linked immunosorbent assay.

Test [7] relates to RASMCs. Description: Elastase degradation of elastin isolated from cultured cell layers. In kind it is cell-based, rat. The note with it: 8-hour enzymatic digestion. The protocol: Enzymatic degradation studies were performed to compare the impact of HA oligomer exposure and their mode of delivery on elastin matrix quality, particularly their resistance to enzymatic breakdown. Elastin matrices isolated by alkali digestion of aortae explanted from adult Sprague-Dawley rats served as additional controls for these studies. Briefly, adult rat aortal segments were removed from euthanized rats, from arch to the celiac axis, under sterile conditions, and spliced lengthwise in petri dishes containing cold phosphate-buffered saline (PBS) containing 2 mM Ca^2+. These spliced sections were then transferred to a dish containing 1-2 ml of collagenase (2 mg/ml; Worthington, Lakewood, N.J.) and incubated for 10 minutes at 37° C. DMEM:F12 media was then added to these collagenase treated samples and mixed well with gentle pipetting. Isolated aortal segments were further chopped crosswise into […] pieces and transferred using fine needles onto sterile petri dishes and stored in PBS at 4° C. until further use. Cell layers were scraped off the culture wells, pelleted by centrifugation (2000 g, 15 min), and stored at −20° C. in PBS until further use (n=9/case).
HA tetramers as described above in Example 1 were tethered onto 4-well glass chamber slides (Nalge Nunc International, Naperville, Ill.). […]

In test [8] the test system is RASMCs. Description: Matrix elastin synthesis by RASMCs (Fastin assay; alkali-soluble and alkali-insoluble fractions). As to conditions: for increase of total matrix production: Example 3, growth factor only (no HA), 3 weeks.
Test [9] relates to lysyl oxidase (LOX). The test is described as follows: LOX protein synthesis (Western blot of spent medium). The note with it: Example 3, 16 day culture, alone or together with HA fragments.

Consider `O=S(=O)([O-])[O-].[Cu+2]` [copper sulfate], for which the cell proliferation result in [1] (Example 4, 0.01 M copper sulfate and HA fragments) is on record as “stimulated”. Also, the “total collagen output per ng DNA vs. non-additive controls” value in test [2] (Example 4, 0.01 M alone) was determined as 0.5±0.04 fold; in [2] (Example 4, 0.1 M alone), 4.1±0.4 fold. Further, the “collagen synthesis vs. controls” value in test [2] (Example 4, 0.01 M copper sulfate in the presence of oligomers, VLMW and HMW HA) is recorded as “consistently suppressed”. Further, the “LOX activity vs. controls” value in [3] (Example 4, 0.01 M alone) worked out at 1.4±0.2. Also, the “basal LOX functional activity” value in test [3] (Example 4, 0.1 M alone or concurrent with HA fragments (except VLMW HA)) was “no significant effect”.

In the case of `CC(=O)N[C@H]1[C@H](O[C@H]2[C@H](O)[C@@H](O)[C@H](O[C@H]3[C@H](O)[C@@H](CO)OC(O)[C@@H]3NC(C)=O)O[C@@H]2C(=O)O)O[C@H](CO)[C@@H](O)[C@@H]1O[C@@H]1O[C@H](C(=O)O)[C@@H](O)[C@H](O)[C@H]1O` (stereo partly drawn) [pure HA 4-mer], in test [1] (Example 1, 21 days of culture, n=3), the “proliferation, times number at 1 day” value is on record as 1.66±0.05 times number at 1 day. For the same molecule, in [4], the “tropoelastin output (DNA normalized) relative to respective control cultures” value was found to be 1.63±0.06 times. Moreover, in [2] (Example 1, 21-day culture), the “collagen production (DNA normalized) relative to respective controls” value is reported as 2.0±0.1 times. In addition, the “normalized tropoelastin band intensity (pixel intensity per ng DNA)” value in test [5] was found to be 0.15±0. In addition, in test [6], the “desmosine amount normalized to DNA and to non-HA controls” value is on record as 4.76±0.10. Further, the “% weight loss of cell pellet elastin on elastase digestion” value in [7] (exogenous HA 4 mers) worked out at 35%; in test [7] (surface-tethered HA 4 mers), 50%. Further, the “DNA normalized matrix elastin output relative to controls” value in test [8] (Example 1, 21-day culture) was determined as 2.7±0.3 times.

In the case of `O=S(=O)([O-])[O-].[Na+].[Na+]` [sodium sulfate, reference compound], the “RASMC proliferation vs. controls” value in test [1] (Example 4, alone, irrespective of the added dose (0.01 and 0.1 M)) is recorded as “no effect”. Further, the “total collagen output per ng DNA vs. non-additive controls” value in [2] (Example 4, 0.01 M alone) stood at 1.1±0.13 fold; in test [2] (Example 4, 0.1 M alone), 0.94±0.15 fold.

Regarding “IGF-1: insulin-like growth factor, added at 500 ng/ml”, the “inhibition of cell proliferation” value in [1] (Example 3, 21 days, all cases except in the presence of oligomers and HMWHA) was 50%. Besides, in test [8] (Example 3, IGF-1 only with no HA), the “elastin matrix production compared to control” value is reported as “did not upregulate”. Moreover, in [8], the “increase of total matrix production” value turned out to be 150±20%.

In the case of “TGF-β: transforming growth factor, added at 1 ng/ml”, in [2] (Example 3, in inverse correlation to the added HA fragment size), the collagen production result is reported as “inhibit”. The LOX protein synthesis result in [9] is reported as “enhanced”. Further, in test [8] (Example 3), the “crosslinking of soluble tropoelastin into matrix elastin” value is on record as “significantly enhance”. Further, in test [8], the “increase of total matrix production” value was 270±12%.
